Assay results published in publication PMC4294348 (Oncotarget, 2014).

Test: Motesanib plasma pharmacokinetics (LC-MS/MS)
Format: in vivo, human
Conditions: for Cmax / AUC / Tmax: human, plasma; for Cmax / AUC: po; for AUC: time 0 to 24 hours; for Tmax: listed as 'Mean'
Protocol: Motesanib PK was assessed by comparing week 1 versus week 4 or 5 (motesanib without and with trebananib, respectively). Serum samples for the evaluation of minimum and maximum observed trebananib concentrations in the plasma were collected immediately before dosing on day 1 of weeks 2, 3, 4, 5, 6, 8, and every 8 weeks thereafter until 4 weeks after the last dose of study treatment. In addition, intensive sampling was conducted at the end of infusion, and 6, 24, 48, and 96 hours following dosing on day 1 of weeks 4 or 5. The samples were analysed for trebananib concentrations employing a validated enzyme-linked immunosorbent assay.
For motesanib, postdose samples were taken at 0.5, 1, 4, 6, and 24 hours during weeks 1 and 5 (without and with trebananib coadministration, respectively). Motesanib plasma concentrations were assessed with a validated liquid chromatography/mass spectrometry (LC-MS/MS) method at Cedra Corporation (Austin, TX).

[1] = 75 mg, motesanib 75 mg oral QD without trebananib, mean
[2] = 125 mg, motesanib 125 mg oral QD without trebananib, mean
[3] = motesanib 75 mg oral QD with trebananib 3 mg kg^−1, mean
[4] = motesanib 125 mg oral QD with trebananib 3 mg kg^−1, mean

Cmax [1]: 0.466 µg/mL
AUC [1]: 2.58 µg·h/mL
Cmax [2]: 0.559 µg/mL
AUC [2]: 3.13 µg·h/mL
Cmax [3]: 0.507 µg/mL
Cmax [4]: 0.541 µg/mL
AUC [3]: 3.18 µg·h/mL
AUC [4]: 3.92 µg·h/mL
Tmax (motesanib 75 mg oral QD with trebananib 3 mg kg^−1): 1 h
Tmax (motesanib 75 mg oral QD without trebananib): 1.1 h
Tmax (motesanib 125 mg oral QD without trebananib): 1 h
Effect of trebananib on motesanib PK (motesanib 75 mg or 125 mg with trebananib 3 mg kg^−1): did not appear to be affected
CL (motesanib 75 mg oral QD without trebananib, mean): 0.0209 L/h/kg
SMILES: CC1(C)CNc2cc(NC(=O)c3cccnc3NCc3ccncc3)ccc21 [Motesanib]
